This is an account of results in patent publication US20240158370A1, “CK1 alpha AND DUAL CK1 alpha / GSPT1 DEGRADING COMPOUNDS” (Innovo Therapeutics, Inc., priority 2022, published 2024).

SMILES strings stand for the structures.

One assay addresses T1, CK1α (Homo sapiens, UniProt P48729+Q96SW2).
T1 construct: CSNK1A1-HiBit KI HEK293(LgBit) Cells; host or cells: HEK293(LgBit) knock-in cells
In words: HiBiT degradation assay, CK1α, Procedure A. In kind it is cell-based. The conditions noted are these: six hours. The method, boiled down:
(§1)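 Six-hour treatment at 37° C, ten doses between 10 μM and 0.005 μM, then HiBiT lytic luminescence. Fitted DC50 and Ymin.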
(HiBiT is a short tag that completes a luciferase, so light tracks the accessible tagged protein.)

The next assay deals with GSPT1 (Homo sapiens, UniProt P15170+Q96SW2). In words: HiBiT degradation assay, GSPT1, Procedure A. Format: cell-based. More on the design: HiBit-GSPT1 KI HEK293(LgBit) Cells; host or cells: HEK293(LgBit) knock-in cells. The conditions noted are these: six hours. The method, boiled down:
as §1

As a reminder, the DC50 is the concentration at which degradation of the target reaches its halfway point. The low end stands for a more potent degrader, the high end for a less potent degrader.

T1 sequence (P48729 whole entry): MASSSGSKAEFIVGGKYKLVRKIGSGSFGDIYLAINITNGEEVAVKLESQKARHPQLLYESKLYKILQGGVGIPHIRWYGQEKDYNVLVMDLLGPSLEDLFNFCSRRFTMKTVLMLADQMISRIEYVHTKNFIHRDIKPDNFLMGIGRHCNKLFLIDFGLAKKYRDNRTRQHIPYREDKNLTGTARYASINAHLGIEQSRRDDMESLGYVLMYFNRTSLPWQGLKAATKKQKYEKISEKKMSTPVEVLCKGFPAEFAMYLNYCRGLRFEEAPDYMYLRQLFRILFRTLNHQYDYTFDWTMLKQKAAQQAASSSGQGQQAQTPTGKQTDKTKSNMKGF
T1 sequence (Q96SW2 whole entry): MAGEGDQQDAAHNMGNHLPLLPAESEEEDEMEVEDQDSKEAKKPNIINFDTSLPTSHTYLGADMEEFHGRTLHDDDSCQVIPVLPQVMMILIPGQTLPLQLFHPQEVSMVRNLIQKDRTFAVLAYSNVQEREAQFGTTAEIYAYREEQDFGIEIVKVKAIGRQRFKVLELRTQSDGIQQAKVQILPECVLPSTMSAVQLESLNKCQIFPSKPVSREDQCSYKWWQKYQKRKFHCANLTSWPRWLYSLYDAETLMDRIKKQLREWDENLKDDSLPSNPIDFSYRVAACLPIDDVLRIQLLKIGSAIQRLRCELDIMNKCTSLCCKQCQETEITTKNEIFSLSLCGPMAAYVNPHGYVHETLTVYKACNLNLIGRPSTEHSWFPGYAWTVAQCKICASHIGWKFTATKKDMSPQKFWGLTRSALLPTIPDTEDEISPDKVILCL
T1 sequence (Q16531 whole entry partner): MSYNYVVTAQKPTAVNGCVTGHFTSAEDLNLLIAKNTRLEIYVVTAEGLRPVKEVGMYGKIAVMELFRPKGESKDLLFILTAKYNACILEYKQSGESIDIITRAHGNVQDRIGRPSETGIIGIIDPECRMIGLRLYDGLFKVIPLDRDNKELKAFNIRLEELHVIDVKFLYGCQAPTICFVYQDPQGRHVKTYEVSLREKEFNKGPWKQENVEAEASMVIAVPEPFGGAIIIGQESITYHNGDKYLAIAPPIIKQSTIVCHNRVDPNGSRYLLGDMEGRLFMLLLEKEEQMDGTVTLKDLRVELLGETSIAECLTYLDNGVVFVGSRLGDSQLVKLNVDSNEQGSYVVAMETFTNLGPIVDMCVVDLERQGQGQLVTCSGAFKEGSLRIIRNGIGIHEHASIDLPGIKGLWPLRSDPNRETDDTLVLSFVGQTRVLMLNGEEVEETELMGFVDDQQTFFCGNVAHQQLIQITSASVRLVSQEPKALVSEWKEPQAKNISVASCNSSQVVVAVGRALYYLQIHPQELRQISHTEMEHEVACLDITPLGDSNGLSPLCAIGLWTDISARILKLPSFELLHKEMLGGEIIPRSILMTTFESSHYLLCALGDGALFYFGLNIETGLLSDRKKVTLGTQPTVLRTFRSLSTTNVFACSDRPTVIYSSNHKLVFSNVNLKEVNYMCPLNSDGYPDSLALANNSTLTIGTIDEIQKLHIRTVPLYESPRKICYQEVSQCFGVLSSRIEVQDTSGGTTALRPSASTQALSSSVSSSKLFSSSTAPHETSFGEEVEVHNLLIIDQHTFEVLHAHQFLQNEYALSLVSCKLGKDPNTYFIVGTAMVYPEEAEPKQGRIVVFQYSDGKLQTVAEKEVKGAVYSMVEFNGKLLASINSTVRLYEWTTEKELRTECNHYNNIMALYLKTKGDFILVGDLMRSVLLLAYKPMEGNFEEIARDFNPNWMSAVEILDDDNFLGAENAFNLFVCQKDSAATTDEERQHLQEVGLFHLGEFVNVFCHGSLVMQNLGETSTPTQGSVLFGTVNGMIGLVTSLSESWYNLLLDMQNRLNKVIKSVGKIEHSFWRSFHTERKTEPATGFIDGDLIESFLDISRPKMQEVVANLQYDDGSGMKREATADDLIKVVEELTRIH
GSPT1, sequence (P15170 whole entry): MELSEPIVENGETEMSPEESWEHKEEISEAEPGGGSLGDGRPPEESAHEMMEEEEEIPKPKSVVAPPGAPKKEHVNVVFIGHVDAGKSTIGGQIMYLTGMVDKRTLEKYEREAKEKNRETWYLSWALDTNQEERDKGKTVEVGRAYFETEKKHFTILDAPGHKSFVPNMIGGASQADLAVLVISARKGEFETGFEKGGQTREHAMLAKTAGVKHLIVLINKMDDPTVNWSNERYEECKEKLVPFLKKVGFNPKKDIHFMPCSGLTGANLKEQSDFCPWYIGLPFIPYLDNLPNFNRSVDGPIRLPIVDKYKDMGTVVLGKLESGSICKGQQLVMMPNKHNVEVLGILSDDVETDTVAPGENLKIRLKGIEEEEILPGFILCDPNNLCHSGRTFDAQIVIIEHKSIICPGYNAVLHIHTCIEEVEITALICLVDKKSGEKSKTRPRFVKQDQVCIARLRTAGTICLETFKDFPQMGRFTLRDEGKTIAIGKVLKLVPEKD
GSPT1, sequence (Q96SW2 whole entry): as the sequence (Q96SW2 whole entry) above
GSPT1, sequence (Q16531 whole entry partner): as the sequence (Q16531 whole entry partner) above

With `O=C1CCC(N2Cc3cc(-c4cn(CC(F)(F)F)nc4-c4ccccc4)ccc3C2=O)C(=O)N1` (stereo not shown) [Example 427, 3-(1-oxo-5-(3-phenyl-1-(2,2,2-trifluoroethyl)-1H-pyrazol-4-yl)isoindolin-2-yl)piperidine-2,6-dione], at CK1α, the “CK1α Ymin” value is “C (C = 0-10% remaining)” and the DC50 is below 25 nM. Also, at GSPT1, the 50% degradation concentration (DC50) is at least 25 nM and the “GSPT1 Ymin” value is on record as “F (F = >75-100% remaining)”.

With `Cn1ncc(-c2ccc3c(c2)CN(C2CCC(=O)NC2=O)C3=O)c1-c1ccc2c(c1)OC(F)(F)O2` (stereo not shown) [Example 428, 3-(5-(5-(2,2-difluorobenzo[d][1,3]dioxol-5-yl)-1-methyl-1H-pyrazol-4-yl)-1-oxoisoindolin-2-yl)piperidine-2,6-dione], on CK1α, the “CK1α Ymin” value is given as “C (C = 0-10% remaining)” and the DC50 is below 25 nM. At GSPT1, the 50% degradation concentration (DC50) was at least 25 nM and the “GSPT1 Ymin” value was “F (F = >75-100% remaining)”.

Consider `CCn1ncc(-c2ccc3c(c2)CN(C2CCC(=O)NC2=O)C3=O)c1-c1ccccc1` (stereo not shown) [Example 429, 3-(5-(1-ethyl-5-phenyl-1H-pyrazol-4-yl)-1-oxoisoindolin-2-yl)piperidine-2,6-dione], for which, on CK1α, the “CK1α Ymin” value is “D (D = >10- 25% remaining)” and the 50% degradation concentration (DC50) is below 25 nM. Also, on GSPT1, the DC50 is below 25 nM and the “GSPT1 Ymin” value is recorded as “F (F = >75-100% remaining)”.

With `O=C1CCC(N2Cc3cc(-c4cnn(CC(F)F)c4-c4ccccc4)ccc3C2=O)C(=O)N1` (stereo not shown) [Example 430, 3-(5-(1-(2,2-difluoroethyl)-5-phenyl-1H-pyrazol-4-yl)-1-oxoisoindolin-2-yl)piperidine-2,6-dione], on CK1α, the “CK1α Ymin” value is given as “D (D = >10- 25% remaining)” and the DC50 was below 25 nM. Moreover, at GSPT1, the half-maximal degradation concentration (DC50) is at least 25 nM and the “GSPT1 Ymin” value is listed as “F (F = >75-100% remaining)”.

As to `[2H]C([2H])([2H])n1ncc(-c2ccc3c(c2)CN(C2CCC(=O)NC2=O)C3=O)c1-c1ccc(OC)c(F)c1` (stereo not shown) [Example 431, 3-(5-(5-(3-fluoro-4-methoxyphenyl)-1-(methyl-d3)-1H-pyrazol-4-yl)-1-oxoisoindolin-2-yl)piperidine-2,6-dione], on CK1α, the “CK1α Ymin” value is on record as “C (C = 0-10% remaining)” and the DC50 was below 25 nM. Further, on GSPT1, the half-maximal degradation concentration (DC50) was at least 25 nM and the “GSPT1 Ymin” value is “F (F = >75-100% remaining)”.

For the compound `[2H]C([2H])([2H])n1ncc(-c2ccc3c(c2)CN(C2CCC(=O)NC2=O)C3=O)c1-c1ccc2c(c1)CCO2` (stereo not shown) [Example 432, 3-(5-(5-(2,3-dihydrobenzofuran-5-yl)-1-(methyl-d3)-1H-pyrazol-4-yl)-1-oxoisoindolin-2-yl)piperidine-2,6-dione], at CK1α, the “CK1α Ymin” value is given as “C (C = 0-10% remaining)” and the DC50 is below 25 nM. Further, on GSPT1, the 50% degradation concentration (DC50) is at least 25 nM and the “GSPT1 Ymin” value is listed as “F (F = >75-100% remaining)”.

As for `[2H]C([2H])([2H])n1ncc(-c2ccc3c(c2)CN(C2CCC(=O)NC2=O)C3=O)c1-c1ccc(OC)cc1` (stereo not shown) [Example 433, 3-(5-(5-(4-methoxyphenyl)-1-(methyl-d3)-1H-pyrazol-4-yl)-1-oxoisoindolin-2-yl) piperidine-2,6-dione], on CK1α, the “CK1α Ymin” value is “C (C = 0-10% remaining)” and the DC50 was below 25 nM. Moreover, at GSPT1, the half-maximal degradation concentration (DC50) is at least 25 nM and the “GSPT1 Ymin” value is reported as “F (F = >75-100% remaining)”.

Turning to `[2H]C([2H])([2H])n1ncc(-c2ccc3c(c2)CN(C2CCC(=O)NC2=O)C3=O)c1-c1ccc(OC)cc1Cl` (stereo not shown) [Example 434, 3-(5-(5-(2-chloro-4-methoxyphenyl)-1-(methyl-d3)-1H-pyrazol-4-yl)-1-oxoisoindolin-2-yl)piperidine-2,6-dione], on CK1α, the “CK1α Ymin” value was “C (C = 0-10% remaining)” and the 50% degradation concentration (DC50) was below 25 nM. Moreover, at GSPT1, the DC50 was at least 25 nM and the “GSPT1 Ymin” value was “F (F = >75-100% remaining)”.

For the compound `[2H]C([2H])([2H])n1ncc(-c2ccc3c(c2)CN(C2CCC(=O)NC2=O)C3=O)c1-c1ccc(OC(F)(F)F)cc1` (stereo not shown) [Example 435, 3-(5-(1-(methyl-d3)-5-(4-(trifluoromethoxy)phenyl)-1H-pyrazol-4-yl)-1-oxoisoindolin-2-yl) piperidine-2,6-dione], on CK1α, the “CK1α Ymin” value is listed as “E (E = >25-75% remaining)” and the half-maximal degradation concentration (DC50) is below 25 nM. Moreover, on GSPT1, the DC50 is below 25 nM and the “GSPT1 Ymin” value is on record as “F (F = >75-100% remaining)”.

Consider `[2H]C([2H])([2H])n1ncc(-c2ccc3c(c2)CN(C2CCC(=O)NC2=O)C3=O)c1-c1ccc(OC(F)F)cc1` (stereo not shown) [Example 436, 3-(5-(5-(4-(difluoromethoxy)phenyl)-1-(methyl-d3)-1H-pyrazol-4-yl)-1-oxoisoindolin-2-yl)piperidine-2,6-dione], for which, at CK1α, the “CK1α Ymin” value is recorded as “D (D = >10- 25% remaining)” and the half-maximal degradation concentration (DC50) is below 25 nM. On GSPT1, the DC50 is at least 25 nM and the “GSPT1 Ymin” value was “F (F = >75-100% remaining)”.

For `[2H]C([2H])([2H])n1cc(-c2ccc3c(c2)CN(C2CCC(=O)NC2=O)C3=O)nc1-c1ccccc1` (stereo not shown) [Example 437, 3-(5-(1-(methyl-d3)-2-phenyl-1H-imidazol-4-yl)-1-oxoisoindolin-2-yl)piperidine-2,6-dione], on CK1α, the “CK1α Ymin” value was “C (C = 0-10% remaining)” and the half-maximal degradation concentration (DC50) is below 25 nM. Further, on GSPT1, the DC50 is below 25 nM and the “GSPT1 Ymin” value is “F (F = >75-100% remaining)”.

Regarding `Cn1ncc(-c2ccc3c(c2)CN(C2CCC(=O)NC2=O)C3=O)c1-c1ccc(F)cc1C#N` (stereo not shown) [Example 438], on CK1α, the “CK1α Ymin” value is reported as “E (E = >25-75% remaining)” and the DC50 is at least 25 nM. Also, at GSPT1, the half-maximal degradation concentration (DC50) was at least 25 nM and the “GSPT1 Ymin” value is “F (F = >75-100% remaining)”.

Turning to `Cn1cnc(-c2ccc3c(c2)CN(C2CCC(=O)NC2=O)C3=O)c1-c1ccc(N)cc1` (stereo not shown) [Example 439], at CK1α, the “CK1α Ymin” value is “C (C = 0-10% remaining)” and the 50% degradation concentration (DC50) was below 25 nM. Also, on GSPT1, the DC50 is below 25 nM and the “GSPT1 Ymin” value is listed as “E (E = >25-75% remaining)”.

Regarding `Cn1cnc(-c2ccc3c(c2)CN(C2CCC(=O)NC2=O)C3=O)c1-c1ccccc1N` (stereo not shown) [Example 440], at CK1α, the “CK1α Ymin” value is reported as “C (C = 0-10% remaining)” and the DC50 was below 25 nM. Also, at GSPT1, the DC50 was below 25 nM and the “GSPT1 Ymin” value is given as “E (E = >25-75% remaining)”.

Take `Cn1cnc(-c2ccc3c(c2)CN(C2CCC(=O)NC2=O)C3=O)c1-c1cccc(F)c1` (stereo not shown) [Example 441]: at CK1α, the “CK1α Ymin” value is reported as “C (C = 0-10% remaining)” and the 50% degradation concentration (DC50) was below 25 nM. Moreover, on GSPT1, the DC50 is below 25 nM and the “GSPT1 Ymin” value is given as “E (E = >25-75% remaining)”.

In the case of `Cc1cccc(C)c1-c1c(-c2ccc3c(c2)CN(C2CCC(=O)NC2=O)C3=O)ncn1C` (stereo not shown) [Example 442], on CK1α, the “CK1α Ymin” value is recorded as “E (E = >25-75% remaining)” and the DC50 was below 25 nM. At GSPT1, the 50% degradation concentration (DC50) is at least 25 nM and the “GSPT1 Ymin” value was “F (F = >75-100% remaining)”.

Regarding `Cn1cnc(-c2ccc3c(c2)CN(C2CCC(=O)NC2=O)C3=O)c1-c1ccc2c(c1)CCO2` (stereo not shown) [Example 443], on CK1α, the “CK1α Ymin” value was “C (C = 0-10% remaining)” and the half-maximal degradation concentration (DC50) is below 25 nM. Besides, on GSPT1, the DC50 was below 25 nM and the “GSPT1 Ymin” value is “E (E = >25-75% remaining)”.

In the case of `Cn1cnc(-c2ccc3c(c2)CN(C2CCC(=O)NC2=O)C3=O)c1-c1ccc(-n2cccn2)cc1` (stereo not shown) [Example 444], at CK1α, the “CK1α Ymin” value is “C (C = 0-10% remaining)” and the 50% degradation concentration (DC50) was below 25 nM. In addition, on GSPT1, the DC50 was below 25 nM and the “GSPT1 Ymin” value is “E (E = >25-75% remaining)”.

`Cn1cnc(-c2ccc3c(c2)CN(C2CCC(=O)NC2=O)C3=O)c1-c1ccc(F)cc1C(F)(F)F` (stereo not shown) [Example 445]: at CK1α, the “CK1α Ymin” value is “E (E = >25-75% remaining)” and the DC50 was below 25 nM. In addition, at GSPT1, the DC50 was at least 25 nM and the “GSPT1 Ymin” value was “F (F = >75-100% remaining)”.

Regarding `COc1ccc2cc(-c3c(-c4ccc5c(c4)CN(C4CCC(=O)NC4=O)C5=O)ncn3C)ccc2c1` (stereo not shown) [Example 446], at CK1α, the “CK1α Ymin” value is “D (D = >10- 25% remaining)” and the DC50 was below 25 nM. Besides, at GSPT1, the DC50 is below 25 nM and the “GSPT1 Ymin” value is “F (F = >75-100% remaining)”.

In the case of `Cn1cnc(-c2ccc3c(c2)CN(C2CCC(=O)NC2=O)C3=O)c1-c1ccc(C(=O)Nc2ccccn2)cc1` (stereo not shown) [Example 447], at CK1α, the “CK1α Ymin” value is recorded as “D (D = >10- 25% remaining)” and the DC50 was at least 25 nM. For the same compound, at GSPT1, the DC50 was at least 25 nM and the “GSPT1 Ymin” value is given as “F (F = >75-100% remaining)”.

Consider `Cn1cnc(-c2ccc3c(c2)CN(C2CCC(=O)NC2=O)C3=O)c1-c1ccc(S(=O)(=O)NC2CCCCC2)cc1` (stereo not shown) [Example 448], for which, on CK1α, the “CK1α Ymin” value is on record as “D (D = >10- 25% remaining)” and the half-maximal degradation concentration (DC50) was at least 25 nM. Moreover, at GSPT1, the DC50 is at least 25 nM and the “GSPT1 Ymin” value is “F (F = >75-100% remaining)”.

For `CN1CCN(S(=O)(=O)c2ccc(-c3c(-c4ccc5c(c4)CN(C4CCC(=O)NC4=O)C5=O)ncn3C)cc2)CC1` (stereo not shown) [Example 449], on CK1α, the “CK1α Ymin” value is “E (E = >25-75% remaining)” and the DC50 was at least 25 nM. For the same compound, on GSPT1, the half-maximal degradation concentration (DC50) is at least 25 nM and the “GSPT1 Ymin” value was “F (F = >75-100% remaining)”.

For the compound `Cn1ncc(-c2ccc3c(c2)CN(C2CCC(=O)NC2=O)C3=O)c1-c1ccnnc1` (stereo not shown) [Example 450], at CK1α, the “CK1α Ymin” value is listed as “F (F = >75-100% remaining)” and the half-maximal degradation concentration (DC50) was at least 25 nM. In addition, at GSPT1, the DC50 was at least 25 nM and the “GSPT1 Ymin” value was “F (F = >75-100% remaining)”.

In the case of `Cn1nccc1-c1c(-c2ccc3c(c2)CN(C2CCC(=O)NC2=O)C3=O)cnn1C` (stereo not shown) [Example 451], on CK1α, the “CK1α Ymin” value is “E (E = >25-75% remaining)” and the half-maximal degradation concentration (DC50) is at least 25 nM. Further, at GSPT1, the half-maximal degradation concentration (DC50) is at least 25 nM and the “GSPT1 Ymin” value was “F (F = >75-100% remaining)”.
